# Biological target: Beta-2 adrenergic receptor (Homo sapiens) (UniProt P07550)
# Sequence (P07550 whole entry, looked up): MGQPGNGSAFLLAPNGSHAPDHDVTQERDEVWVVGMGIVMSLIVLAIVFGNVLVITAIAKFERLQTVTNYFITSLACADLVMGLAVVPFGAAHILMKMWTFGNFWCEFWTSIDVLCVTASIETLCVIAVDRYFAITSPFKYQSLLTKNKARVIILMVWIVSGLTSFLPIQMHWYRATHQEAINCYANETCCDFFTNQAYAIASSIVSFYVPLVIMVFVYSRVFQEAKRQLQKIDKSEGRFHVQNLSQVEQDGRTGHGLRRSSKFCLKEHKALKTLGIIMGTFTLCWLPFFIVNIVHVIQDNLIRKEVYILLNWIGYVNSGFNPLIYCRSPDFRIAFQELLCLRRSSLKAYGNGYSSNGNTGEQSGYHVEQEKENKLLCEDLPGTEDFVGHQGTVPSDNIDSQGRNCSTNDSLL
# Description: Binding affinity to inactive/G protein-uncoupled human beta2-AR by immobilized artificial membrane HPLC analysis
row,SMILES,log K
1,CC(C)(C)NCC(O)COc1cccc2c1CC(O)C(O)C2 (mixture of isomers),1.7
2,CC(C)(C)NCC(O)COc1cccc2[nH]c(C#N)cc12 (racemic),2.9
